Assay results reported in patent US11813262B2, “Compositions and methods to increase muscular strength” (priority 2017, dated 2023).

Legend:
[1] = system: mouse hindlimb extensor digitorum longus (EDL) muscle explant; experiment: Contractility of mouse hindlimb EDL muscle explant on cantilevers under electrical stimulation
From the text: The hindlimb extensor digitorum longus (EDL) muscle of a euthanized 2-3 month old male mouse was dissected. The EDL muscle was anchored between two kapton cantilevers using a cyanoacrylate glue. One of the cantilevers was movable whose position could be adjusted to change the resting tension of the muscle. The cantilever was moved to the point where maximal force was produced and was held at this point for the rest of the experiment. (FIG. 7A-7B).
The two colored envelopes around the curves representing the mean are the 68% and 95% confidence interval envelopes (FIG. 7D). ZygoA treated tissues that responded the best, with an average of ˜2× transient increase in contraction after treatment, followed by decline (FIG. 7E). […] Modeling the decline associated with rigor mortis as an exponential decay estimated the “true” strength change after treatment. The muscle strength was compared of tissue after treatment extrapolated to time t=0 and represent this as a strength ratio relative to the actual strength at t=0. ZygoA treated tissues show a ˜2.5-fold increase in median strength ratio relative to DMSO treated controls.

[2] = system: F-actin; experiment: Phalloidin stain of F-actin in mouse EDL muscle explants; details: 3 uM, 2 hours of treatment, vs DMSO
[3] = system: 3D engineered skeletal muscle tissue from C2Cl2 myoblasts; experiment: Contractility of 3D engineered optogenetic skeletal muscle tissue (displacement of compliant cantilever); format: cell-based, mouse; details: for effect on muscle contraction of 3D muscle: other actin disrupters
From the text: An in vitro optogenetic skeletal muscle micro-tissue as a model system (e.g., engineered skeletal muscle) such as the one shown in FIG. 1A-1E was used. Briefly, a sacrificial molding technique was used to form the muscle tissue on the cantilevers. A steel rod was used to mold a cylindrical hole in solidified gelatin. The steel rod was then removed and myoblasts in an extracellular matrix material was inserted in its place. The myoblasts were then differentiated in place to form a differentiated muscle tissue. With this system, a range of actin inhibitors were tested (e.g., Cytochalasin D (Zygosporin A), Latrunculin A, SMIFH2, CK666 and Jasplakinode) including ones that bind to the barbed end of F-actin, ones that sequester G-actin monomers and inhibitors of formins, roughly a 100% increase in muscle strength was observed (FIGS. 2A-2B and FIGS. 3A-3B) and a 300% increase in external work performed was observed, within 2 hours of F-actin disruption. Additionally, disruption of the dynamic F-actin cytoskeleton using small molecule actin dynamics inhibitors led to a persistent 2-fold improvement in force (e.g., muscle performance or work) compared to exercising (FIG. 4A-4E). Actin disruption improved mouse muscle explant force, a model system that is very close to human muscle (FIG. 5A-5C).
(§1) Fabrication of a 3D engineered skeletal muscle tissue by differentiating C2Cl2 myoblasts mixed in a fibrin/matrigel extracellular matrix cast in to a muscle-like cylindrical shape using a sacrificial molding technique. The muscle tissue is anchored to a stiff cantilever and a more compliant cantilever. Optogenetic stimulation of the muscle tissue lead to muscle contraction which was quantified through measurable displacements of the compliant cantilever. ZygoA treatment of the 3D muscle tissues lead to a significant improvement in contraction relative to DMSO treated controls, reaching ˜2-fold increase in 2 hours.

[4] = system: differentiated C2Cl2 myotubes; experiment: Active contraction of differentiated optogenetic C2Cl2 myotubes (Index of Movement); format: cell-based, mouse
From the text: as §1

[5] = system: F-actin; experiment: Live confocal time-lapse microscopy of Sir-Actin stained myotubes; format: cell-based; details: 0.3 uM
Protocol: However, some of the background non-sarcomeric F-actin was depolymerized as also quantified in (FIG. 10D). Myotubes with an immature sarcomeric structure were depolymerized ˜5 hours after ZygoA treatment (FIG. 10C). Poorly differentiated, myotubes without visible sarcomeric structures had rupturing F-actin cables and significant actin upon actin disruption with ZygoA. […] Sir-Actin intensity before and 12 hours after treatment along sarcomeric F-actin in mature myotubes (FIG. 10D-10E).

[6] = system: F-actin; experiment: Fluorescence recovery after photobleaching of GFP-tagged G-actin in C2Cl2 myotubes; format: cell-based, mouse
From the text: The fluorescence recovery in differentiated myotubes was affected by 3 different events: diffusion, dynamic F-actin turnover and stable F-actin turnover. DMSO treated tissues recovered faster than ZygoA treated tissues. […] These myotubes were excluded from the computation. Fluorescence recovery at different timescales (seconds, minutes, tens of minutes) reflected different molecular processes (diffusion of monomer, dynamic F-actin turnover, stable F-actin turnover). […] Changes in dynamic and stable F-actin fractions were statistically significant (FIG. 11D-11E).

[7] = poorly differentiated myotubes without visible sarcomeric structures

C=C1[C@@H](C)[C@H]2[C@H](Cc3ccccc3)NC(=O)[C@]23[C@H](OC(C)=O)/C=C/[C@@](C)(O)C(=O)[C@@H](C)C/C=C/[C@H]3[C@@H]1O [ZygoA, Zygosporin A] was tested, and the “transient increase in contraction after treatment” value ([1]; ZygoA treated tissues that responded the best, average, treatment at t=60 mins) was ~2 ×, the “increase in median strength ratio relative to DMSO treated controls” value ([1]; strength after treatment extrapolated to t=0 (exponential decay model of rigor mortis) relative to actual strength at t=0) was ~2.5 fold and the “contractility changes of treated tissues vs DMSO” value ([1]; treatment at t=60 mins, before rigor mortis decline) was “transient improvement”. The “F-actin disruption in muscle explants (phalloidin stain)” value [2] was “disrupted F-actin”, the “longer term effect on active contraction” value ([3]; 0.3 μM, long term (1 day)) was “no significant effect” and the “muscle contraction after pulsed treatment compared to DMSO treated controls” value ([3]; 3 uM for 2 hours followed by washout, days after washout) was “sustained improvement in muscle contraction”. The “short term increase in force (active contraction)” value ([3]; 3 μM, 2 hours of exposure) was 2.6 ×, the “decrease in contraction compared to the peak achieved 2 hours after exposure” value ([3]; 3 μM, longer term (1 day)) was ~50% and the “increase in contraction relative to DMSO treated controls” value ([3]; 3D muscle tissues, in 2 hours) was ~2 fold. For the same molecule, the “effect of washout on contraction” value ([3]; washout of high dose 3 uM) was “recovery of the force to the level of the peak”, the “effect of washout on contraction” value ([3]; washout of low dose 0.3 uM) was “slight decrease in contraction (not significant)” and the “active contraction (Index of Movement, active contractile displacement)” value [4] was “significant improvement in active contraction”. For the same molecule, the “time to depolymerization of myotubes with immature sarcomeric structure” value [5] was ~5 h, the “sarcomeric F-actin structure in mature myotubes after treatment” value ([5]; 12 hours after treatment, mature sarcomeric structure) was “still displayed the periodic sarcomeric structure” and the “average F-actin filament length” value [5, 7] was “decrease in the average F-actin filament length”. For the same molecule, the “number of F-actin filaments” value [5, 7] was “increase in number of F-actin filaments”, the actin turnover time ([6]; FRAP, vs DMSO) was “slowed the actin turnover time in a dose-dependent manner” and the “amount of stable F-actin” value ([6]; higher dose 3 uM) was “reduces the amount of stable F-actin”. The “amount of dynamic F-actin” value ([6]; low dose 0.3 uM) was “reduced the amount of dynamic F-actin”.

For C/C1=C/C(=O)O[C@@H]2C[C@@H](CC[C@H](C)/C=C\C=C\CC1)O[C@@](O)([C@@H]1CSC(=O)N1)C2 [Latrunculin A], the “effect on muscle contraction of 3D muscle” value [3] was “improved muscle contraction”.

With C/C1=C\[C@H](C)C[C@H](C)OC(=O)C[C@H](c2ccc(O)cc2)NC(=O)[C@@H](Cc2c(Br)[nH]c3ccccc23)N(C)C(=O)[C@H](C)NC(=O)[C@@H](C)C1 [jasplakinolide] the “active contractility after F-actin stabilization” value [3] was “gradual decrease in active contractility”.

O=C1NC(=S)N(c2cccc(Br)c2)C(=O)C1=Cc1ccco1 [SMIFH2, 1-(3-Bromophenyl)-5-(2-furylmethylene)-2-thioxo-hexahydropyrimidine-4,6-dione] was tested, and the “effect on muscle contraction of 3D muscle” value [3] was “improved muscle contraction”.
